Reference: ChEMBL document CHEMBL1201862, “PubChem BioAssay data set” (2004)
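Interpolation was linear, between the two tested concentrations surrounding the appropriate level; five concentrations were tested over 48 hours in 96-well plates. GI50 marks 50% less growth.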 Calls of active or inactive are those of the source. Cut-off read from the data, not from the text of the source: active = GI50 up to about 1.1 µM and inactive = higher.

Experiments:
Experiment in all cases: NCI anticancer screen, dose series, 48 h
SW-620 = test system: SW-620
Hs-578T = test system: Hs-578T
SR = test system: SR
CAKI-1 = test system: CAKI-1
U-251 = test system: U-251
SK-MEL-5 = test system: SK-MEL-5
OVCAR-4 = test system: OVCAR-4
OVCAR-5 = test system: OVCAR-5
MDA-N = test system: MDA-N
EKVX = test system: EKVX
PC-3 = test system: PC-3
SK-MEL-2 = test system: SK-MEL-2
T47D = test system: T47D
HCT-116 = test system: HCT-116
SN12C = test system: SN12C
DU-145 = test system: DU-145
HOP-62 = test system: HOP-62
MDA-MB-435 = test system: MDA-MB-435
SK-MEL-28 = test system: SK-MEL-28
NCI-H23 = test system: NCI-H23
SNB-19 = test system: SNB-19
K562 = test system: K562
NCI-H226 = test system: NCI-H226
786-0 = test system: 786-0
OVCAR-8 = test system: OVCAR-8
SF-295 = test system: SF-295
ACHN = test system: ACHN
NCI-H522 = test system: NCI-H522
TK-10 = test system: TK-10
Malme-3M = test system: Malme-3M
UACC-62 = test system: UACC-62
UO-31 = test system: UO-31
NCI-H460 = test system: NCI-H460
RPMI-8226 = test system: RPMI-8226
RXF 393 = test system: RXF 393
HCT-15 = test system: HCT-15
HT-29 = test system: HT-29
HOP-92 = test system: HOP-92
MOLT-4 = test system: MOLT-4
MCF7 = test system: MCF7
A498 = test system: A498
M14 = test system: M14
SNB-75 = test system: SNB-75
MDA-MB-231 = test system: MDA-MB-231
A549 = test system: A549
SF-268 = test system: SF-268
HCC 2998 = test system: HCC 2998
CCRF-CEM = test system: CCRF-CEM
HL-60 = test system: HL-60
IGROV-1 = test system: IGROV-1
NCI/ADR-RES = test system: NCI/ADR-RES
KM12 = test system: KM12
COLO 205 = test system: COLO 205
SF-539 = test system: SF-539
UACC-257 = test system: UACC-257
SK-OV-3 = test system: SK-OV-3
LOX IMVI = test system: LOX IMVI
OVCAR-3 = test system: OVCAR-3

Measured: GI50

C=CCOC(=O)N1c2ccc(O)cc2[C@@]23O[C@@]24[C@@H]1C#C/C=C\C#C[C@]3(O)C(=O)C[C@@H]4C
active: OVCAR-4 23.1 nM
> 100000 nM: HCT-15
inactive: SW-620 > 100 µM | Hs-578T 47.5 µM | SR 15 µM | CAKI-1 > 100 µM | U-251 95.9 µM | SK-MEL-5 21.5 µM | OVCAR-5 28.2 µM | MDA-N > 100 µM | EKVX 78 µM | PC-3 34.8 µM | SK-MEL-2 77.8 µM | T47D > 100 µM | HCT-116 51.5 µM | SN12C 54.2 µM | DU-145 > 100 µM | HOP-62 > 100 µM | MDA-MB-435 27.4 µM | SK-MEL-28 > 100 µM | NCI-H23 22.7 µM | SNB-19 > 100 µM | K562 59.7 µM | NCI-H226 34.4 µM | 786-0 13.9 µM | OVCAR-8 47.1 µM | SF-295 > 100 µM | ACHN 28.2 µM | NCI-H522 40.1 µM | TK-10 > 100 µM | Malme-3M 98.2 µM | UACC-62 99.8 µM | UO-31 54.3 µM | NCI-H460 11.5 µM | RPMI-8226 25.6 µM | RXF 393 > 100 µM | HT-29 43.5 µM | HOP-92 72.9 µM | MOLT-4 14.8 µM | MCF7 61.8 µM | A498 42.8 µM | M14 39.7 µM | SNB-75 27.2 µM | MDA-MB-231 > 100 µM | A549 32 µM | SF-268 79.1 µM | HCC 2998 > 100 µM | CCRF-CEM 28.4 µM | HL-60 37.8 µM | IGROV-1 62.8 µM | NCI/ADR-RES 65.5 µM | KM12 > 100 µM | COLO 205 36.6 µM | SF-539 83.8 µM | UACC-257 > 100 µM

O=C(CSc1nc2ccccc2c(=O)n1-c1ccccc1)N/N=C1\C(=O)Nc2ccc(F)cc21
2000 nM: HCT-15
inactive: SW-620 4.24 µM | Hs-578T 4.18 µM | SR 1.53 µM | CAKI-1 1.73 µM | SK-OV-3 1.81 µM | U-251 8.93 µM | SK-MEL-5 3.3 µM | OVCAR-4 1820 nM | OVCAR-5 2.04 µM | MDA-N 3.47 µM | EKVX 2.43 µM | PC-3 1.85 µM | SK-MEL-2 1.88 µM | T47D 1.87 µM | HCT-116 2.02 µM | SN12C 1.97 µM | DU-145 1.89 µM | HOP-62 2.09 µM | MDA-MB-435 3.64 µM | SK-MEL-28 2.08 µM | NCI-H23 3.01 µM | SNB-19 4.08 µM | K562 1.61 µM | NCI-H226 2.28 µM | 786-0 2.34 µM | SF-295 1.87 µM | LOX IMVI 4.31 µM | ACHN 1.91 µM | TK-10 1.9 µM | Malme-3M 2.01 µM | UACC-62 2.24 µM | UO-31 2 µM | NCI-H460 2.19 µM | RPMI-8226 2.3 µM | RXF 393 1.95 µM | HT-29 3.06 µM | HOP-92 1.84 µM | MOLT-4 1.61 µM | OVCAR-3 1.91 µM | MCF7 2.18 µM | A498 1.85 µM | M14 1.9 µM | MDA-MB-231 2.01 µM | A549 4 µM | SF-268 2.25 µM | HCC 2998 2.21 µM | CCRF-CEM 2.35 µM | HL-60 1.82 µM | NCI/ADR-RES 2.21 µM | KM12 3.71 µM | COLO 205 2.64 µM | SF-539 3.14 µM | UACC-257 2.47 µM
